The test system of one series is anesthetized guinea pig. Description: In vivo hypotensive activity, arterial blood pressure (ABP) in the guinea pig. To be noted: intravenous, artificial ventilation. How it is done: (§1) B. In Vivo Bronchodilator and Hypotensive Activity.
(§2) The trachea of anesthetized guinea pig was cannulated and the ITP recorded on a polygraph under artificial ventilation. Arterial blood pressure (ABP; reflecting hypotensive activity) was also measured during the experiment. Either intravenous or intraduodenal routes of administration are used. […] The ratio of hypotensive ED20 /bronchodilating ED50 reflects an assessment of the separation of desirable bronchodilator activity from undesirable cardiovascular (hypotensive) effect in the compounds.

Series [1] concerns trachea of anesthetized guinea pig. Description: In vivo bronchodilator activity, decrease in intratracheal pressure (ITP) in the guinea pig. Conditions: intravenous; for ED50: Cavia porcellus, anesthetized guinea pig, artificial ventilation, read-out: ITP ED50 (dose resulting in a 50% decrease in intratracheal pressure); for Ratio ABP/ITP (hypotensive ED20/bronchodilating ED50): separation of bronchodilator activity from hypotensive effect. How it is done: as §1, §2

Series [2] deals with tracheal chains of guinea pig. The experiment in a line: In vitro bronchodilator activity, tracheal chains of guinea pig (Magnus method). Type of series: cell-based. To be noted: Cavia porcellus, relative to maximum response to 0.1 mcg./ml. isoproterenol, read-out: EC50 (concentration which produces a relaxation which is 50% of the maximum response to 0.1 mcg./ml. of isoproterenol). How it is done:
A. In Vitro Bronchodilator Activity.
Tracheal chains of guinea pig were prepared by the method of A. Akcasu, Arch. Int. Pharmcodyn. […] The response to each test compound was recorded by the Magnus method and expressed as a percentage of the maximum response obtained with 0.1 mcg./ml. of isoproterenol prior to each experiment.

Converted amounts (≈) assume the structure as drawn.

The term ED50 denotes the dose that gives a 50% effect, or the effect in half of the subjects. Regarding `CCCSc1nc(N)c2ncn(C3C=CCCC3)c2n1` (stereo not drawn) [Example 1, 9-(2-Cyclohexenyl)-2-n-propylthio-9H-adenine], the “ABP ED20 (dose which reduces arterial blood pressure by 20%)” value with anesthetized guinea pig was greater than 3 mg/kg. For the same compound, in series [1], the 50% effective dose (ED50) is 0.31 mg/kg and the “Ratio ABP/ITP (hypotensive ED20/bronchodilating ED50)” value is on record as greater than 9.7. The EC50 in series [2] was determined as 0.02 mg/L (≈ 0.0691 µM).
`CCCSc1nc(N)c2ncn(C3CCCCC3)c2n1` [Example 2, 9-Cyclohexyl-2-n-propylthio-9H-adenine]: in the series on anesthetized guinea pig, the “ABP ED20 (dose which reduces arterial blood pressure by 20%)” value was greater than 3 mg/kg. Also, in series [1], the ED50 amounted to 1.1 mg/kg and the “Ratio ABP/ITP (hypotensive ED20/bronchodilating ED50)” value is recorded as greater than 2.7. Besides, the EC50 in series [2] was found to be 0.19 mg/L (≈ 0.652 µM).
As to `Cn1c(=O)c2[nH]cnc2n(C)c1=O` [Aminophylline, reference compound], in the series with anesthetized guinea pig, the “ABP ED20 (dose which reduces arterial blood pressure by 20%)” value was found to be 1.4 mg/kg.

These data come from US4269839A, “Alkylthio-adenines used as bronchodilators” (Bristol-Myers Company, priority 1979, dated 1981).
